Series [1] is described as follows: Hydrolysis of NHS active esters in D2O monitored by NMR. It is filed as physicochemical. Conditions: in D2O at 25° C.; for Estimated Time for 95% Hydrolysis / Estimated Time for 10% Hydrolysis: NMR; for k = Constant in % Hydrolysis, y = k Exp(−mx) / m = Relative Rate in % Hydrolysis, y = k Exp(−mx): x = Time. How it is done:
The relative reactivity of the active esters was determined by monitoring the rate of hydrolytic degradation in D2O at room temperature by NMR as shown in FIG. 4.
Various NHS active esters shown in FIG. 4 are the 4-Arm-TKHEED-Diglycolate-NHS (T-Dig-NHS or T-DG-N), the 4-Arm-Quadrol-Diglycolate-NHS (Q-Dig-NHS or Q-DG-N), the 4-Arm-PEG-Diglycolate-NHS (PEG-Dig-NHS or PEG-DG-N), the 4-Arm-TKHEED-Glutarate-NHS (T-Glut-NHS or T-Glut-N), and the 2-Arm-PEG-Diacid-NHS (PEG-NHS). It was observed that diglycolate-containing esters are the fastest hydrolyzing active esters, meaning to hydrolyze more than 95% in about 30 to 60 minutes irrespective of the core structure. […] These compounds appear to hydrolyze only about 10% or less in about 80 to 100 minutes.
Hydrolysis degradation parameters are summarized in Table 1 qualitatively from the chart in FIG. 4. It is observed that the Relative Rate, m, (in the exponential equation) for all the Diglycolate-NHS esters are within about 20% of each other. However, the rates are much faster than the others; for example, T-Dig-NHS (or T-DG-N) is 144 times faster than T-Glut-NHS, and 98 times faster than PEG-NHS. The degradation profiles of cross-linker A (T-DG-NHS), B (Q-Dig-NHS) and C (PEG-Dig-NHS) correspond to the instant invention, while the crosslinking agent D (T-Glut-NHS) and E (PEG-NHS) correspond to control groups.

The target in series [2] is T1, fibrinogen (BAC-2) solution (Homo sapiens, UniProt P02671+P02675+P02679).
T1 construct: Powdered BAC-2, a blood plasma derived product was obtained from Omrix BioPharmaceuticals; purchased Omrix BioPharmaceuticals; host or cells: blood plasma
T1 sequence (P02671 20-629 limits assumed): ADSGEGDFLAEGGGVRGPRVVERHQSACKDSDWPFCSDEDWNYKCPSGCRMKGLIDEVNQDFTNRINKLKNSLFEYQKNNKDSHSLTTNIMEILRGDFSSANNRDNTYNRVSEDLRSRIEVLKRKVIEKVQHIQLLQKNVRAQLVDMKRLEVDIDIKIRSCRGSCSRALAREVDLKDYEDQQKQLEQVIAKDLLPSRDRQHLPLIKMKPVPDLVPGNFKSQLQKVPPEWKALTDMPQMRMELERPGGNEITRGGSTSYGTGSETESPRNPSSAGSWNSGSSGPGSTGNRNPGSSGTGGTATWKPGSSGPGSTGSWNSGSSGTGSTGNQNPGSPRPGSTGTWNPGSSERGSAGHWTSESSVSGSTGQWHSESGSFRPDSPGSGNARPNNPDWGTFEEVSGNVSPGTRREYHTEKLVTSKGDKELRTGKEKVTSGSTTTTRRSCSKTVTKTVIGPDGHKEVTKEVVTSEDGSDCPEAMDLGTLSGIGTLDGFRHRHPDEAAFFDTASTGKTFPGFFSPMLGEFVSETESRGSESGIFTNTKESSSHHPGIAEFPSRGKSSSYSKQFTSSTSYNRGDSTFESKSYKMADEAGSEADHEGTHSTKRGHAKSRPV
T1 sequence (P02675 31-491): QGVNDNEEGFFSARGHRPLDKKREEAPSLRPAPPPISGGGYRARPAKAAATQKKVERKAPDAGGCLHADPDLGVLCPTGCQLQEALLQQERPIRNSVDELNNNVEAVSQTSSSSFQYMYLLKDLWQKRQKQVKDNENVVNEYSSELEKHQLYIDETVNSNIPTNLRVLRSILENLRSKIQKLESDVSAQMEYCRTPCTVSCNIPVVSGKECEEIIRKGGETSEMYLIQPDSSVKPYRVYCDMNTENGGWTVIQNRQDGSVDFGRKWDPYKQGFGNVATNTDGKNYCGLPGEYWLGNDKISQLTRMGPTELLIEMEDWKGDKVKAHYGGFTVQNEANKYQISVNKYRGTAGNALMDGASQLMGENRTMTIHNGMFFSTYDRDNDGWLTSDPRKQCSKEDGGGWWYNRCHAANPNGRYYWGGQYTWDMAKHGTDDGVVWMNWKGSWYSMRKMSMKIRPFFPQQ
T1 sequence (P02679 27-433 limits assumed): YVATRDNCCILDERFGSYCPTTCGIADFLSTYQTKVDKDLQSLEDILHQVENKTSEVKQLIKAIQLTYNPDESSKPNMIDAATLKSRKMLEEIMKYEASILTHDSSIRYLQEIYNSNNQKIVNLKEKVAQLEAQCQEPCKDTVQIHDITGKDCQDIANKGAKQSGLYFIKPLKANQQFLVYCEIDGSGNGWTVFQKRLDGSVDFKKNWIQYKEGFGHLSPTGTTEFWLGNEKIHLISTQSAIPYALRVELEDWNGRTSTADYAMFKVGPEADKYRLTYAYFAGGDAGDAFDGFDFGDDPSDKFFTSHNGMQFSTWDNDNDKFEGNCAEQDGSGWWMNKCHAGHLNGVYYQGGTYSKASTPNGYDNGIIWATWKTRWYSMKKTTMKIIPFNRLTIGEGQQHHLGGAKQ
Kind of series: Qualitative rate of gelation of BAC-2 (fibrinogen) solution with active ester cross-linker. The conditions noted are these: weight ratio cross-linker to fibrinogen 1:1, fibrinogen approx. 70 mg/ml, room temperature. How it is done:
Sealants based on the inventive compositions were prepared by using an aqueous solution of BAC-2 (about 7% fibrinogen, or 70 mg/ml) where the crosslinking agent in the form of a powder was added at a selected composition and mixed well for 1 to 2 minutes up to gellation.
Crosslinking agents A, B, C correspond to the instant invention, while D and E correspond to control groups. The solid NHS ester, preferably in a powder form, was added to the BAC-2 solution at room temperature in a test tube at a weight ratio of 1 to 1 for active ester to fibrinogen, and mixed well. The time for gelation, defined qualitatively as the point when the BAC-2 solution in the test tube no longer flowed, was noted and recorded as shown in Table 2.
Sealants were prepared using an aqueous solution of fibrinogen (about 7% solution), where powder of either T-DG-N or PEG-DG-N was added at a selected composition based on the fibrinogen content. […] The in vitro rate of degradation of the hydrogel (or sealant) was determined in an enzymatic medium of plasmin at a concentration of 3.3 microgram/ml by determining the % clot remaining by gravimetric method after a given duration of exposure.

The nature of series [3]: Water solubility of diglycolate-NHS esters. It is filed as physicochemical.
Series [4] is described as follows: Hydrolytic degradation of sealant in de-ionized water at 37° C. by pH profiling. In kind it is physicochemical. Conditions: deionized water 37° C., constant pH 7.4. How it is done:
Sealant with ester links undergoing hydrolytic degradation in PBS at 37° C. was evaluated by the % weight loss method. Sealant degradation in de-ionized (DI) water causes the pH level of the solution to […], which can be titrated by addition of a basic compound to maintain a constant pH of 7.4 at 37° C. until such time that no more basic compound was needed to maintain a neutral solution; the total time for titration was noted.
As the Diglycolate-NHS/BAC-2 system is a hydrogel of fibrinogen with ester based cross-links, its degradation was followed in the pH profiler of de-ionized water at 37° C., where a base was added to neutralize the acid formed upon ester hydrolysis with time, to maintain a constant neutral pH. Cross-linker weight % was varied based on fibrinogen content.

Turning to 4-Arm-Quadrol-Diglycolate-NHS [Q-DG-N], in series [1], the “Estimated Time for 95% Hydrolysis” value is 60 min; the “k = Constant in % Hydrolysis, y = k Exp(−mx)” value (“k = Constant in % Hydrolysis” for short) is 107; the “m = Relative Rate in % Hydrolysis, y = k Exp(−mx)” value (“m = Relative Rate in % Hydrolysis” below) is recorded as 0.084. Further, in series [2], the “Qualitative observation of Gelation” value was in the range of 1 to 2 min. Further, in series [3], the water solubility entry was “about 25%”.

Regarding `O=C(CCOCCOCCOCCOCCOCCOCCOCCOCCOCCC(=O)ON1C(=O)CCC1=O)ON1C(=O)CCC1=O` [PEG-NHS, Bis-dPEG(9)-NHS ester, reference compound], in series [1], the “Estimated Time for 10% Hydrolysis” value was 80 min; the “k = Constant in % Hydrolysis” value was 98; the “m = Relative Rate in % Hydrolysis” value was found to be 0.00106. The “Qualitative observation of Gelation” value in series [2] was in the range of 15 to 30 min.

Take `O=C(COCC(=O)ON1C(=O)CCC1=O)OCCN(CCOC(=O)COCC(=O)ON1C(=O)CCC1=O)CCN(CCOC(=O)COCC(=O)ON1C(=O)CCC1=O)CCOC(=O)COCC(=O)ON1C(=O)CCC1=O` [T-DG-N, 4-Arm TKHEED-tetra Diglycolate-tetra-NHS ester]: in series [1], the “hydrolysis rate, times faster than PEG-NHS” value is reported as 98 times; the “hydrolysis rate, times faster than T-Glut-NHS” value is 144 times; the “Estimated Time for 95% Hydrolysis” value was 30 min; the “k = Constant in % Hydrolysis” value is reported as 62. Also, the “m = Relative Rate in % Hydrolysis” value in series [1] was determined as 0.104. Moreover, the “Qualitative observation of Gelation” value in series [2] lay in the range of 1 to 2 min. The water solubility entry in series [3] was “more than 85%”. In addition, in series [4] (NHS cross-linker 30 wt % based on fibrinogen), the “Longevity of sealant, Avg.” value came out at 2.7 days. Moreover, the “Longevity of sealant, Avg.” value in series [4] (NHS cross-linker 50 wt % based on fibrinogen) was 7.1 days. Also, the “Longevity of sealant, Avg.” value in series [4] (NHS cross-linker 60 wt % based on fibrinogen) turned out to be 16.7 days.

As for “4-Arm-TKHEED-Glutarate-NHS [T-Glut-NHS, reference compound]”, in series [1], the “Estimated Time for 10% Hydrolysis” value is 100 min; the “k = Constant in % Hydrolysis” value was 65; the “m = Relative Rate in % Hydrolysis” value amounted to 0.00072. The “Qualitative observation of Gelation” value in series [2] was 30 to 60 min.
